#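 These data come from cells grown in 96-well plates and exposed to compound for 48 hours at five concentrations. GI50 = concentration required for 50% inhibition of growth.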 Calls of active or inactive are those of the source. Cut-off read from the data, not from the text of the source: active = GI50 up to about 1.1 µM and inactive = higher.
# Columns and labels:
# Assay in all cases: NCI anticancer screen, dose series, 48 h
# 786-0 = tested on: 786-0
# A498 = tested on: A498
# A549 = tested on: A549
# ACHN = tested on: ACHN
# BT-549 = tested on: BT-549
# CAKI-1 = tested on: CAKI-1
# CCRF-CEM = tested on: CCRF-CEM
# COLO 205 = tested on: COLO 205
# DU-145 = tested on: DU-145
# EKVX = tested on: EKVX
# HCC 2998 = tested on: HCC 2998
# HCT-116 = tested on: HCT-116
# HCT-15 = tested on: HCT-15
# HL-60 = tested on: HL-60
# HOP-92 = tested on: HOP-92
# HT-29 = tested on: HT-29
# Hs-578T = tested on: Hs-578T
# IGROV-1 = tested on: IGROV-1
# K562 = tested on: K562
# KM12 = tested on: KM12
# LOX IMVI = tested on: LOX IMVI
# M14 = tested on: M14
# MCF7 = tested on: MCF7
# MDA-MB-231 = tested on: MDA-MB-231
# MDA-MB-435 = tested on: MDA-MB-435
# MDA-N = tested on: MDA-N
# MOLT-4 = tested on: MOLT-4
# Malme-3M = tested on: Malme-3M
# NCI-H226 = tested on: NCI-H226
# NCI-H23 = tested on: NCI-H23
# NCI-H460 = tested on: NCI-H460
# NCI-H522 = tested on: NCI-H522
# NCI/ADR-RES = tested on: NCI/ADR-RES
# OVCAR-3 = tested on: OVCAR-3
# OVCAR-4 = tested on: OVCAR-4
# OVCAR-5 = tested on: OVCAR-5
# OVCAR-8 = tested on: OVCAR-8
# PC-3 = tested on: PC-3
# SF-268 = tested on: SF-268
# SF-295 = tested on: SF-295
# SF-539 = tested on: SF-539
# SK-MEL-28 = tested on: SK-MEL-28
# SK-MEL-2 = tested on: SK-MEL-2
# SK-MEL-5 = tested on: SK-MEL-5
# SK-OV-3 = tested on: SK-OV-3
# SN12C = tested on: SN12C
# SNB-19 = tested on: SNB-19
# SW-620 = tested on: SW-620
# T47D = tested on: T47D
# TK-10 = tested on: TK-10
# U-251 = tested on: U-251
# UACC-257 = tested on: UACC-257
# UACC-62 = tested on: UACC-62
# UO-31 = tested on: UO-31
# HOP-62 = tested on: HOP-62
# RPMI-8226 = tested on: RPMI-8226
# RXF 393 = tested on: RXF 393
# SNB-75 = tested on: SNB-75
structure (smiles),measurement,setting,value
N#Cc1c2c(c(N3CCOCC3)n3c1nc1ccccc13)CCCC2,GI50,786-0,16.3 µM (inactive)
same,GI50,A498,19 µM (inactive)
same,GI50,A549,23.8 µM (inactive)
same,GI50,ACHN,14.8 µM (inactive)
same,GI50,BT-549,40.1 µM (inactive)
same,GI50,CAKI-1,19.1 µM (inactive)
same,GI50,CCRF-CEM,2.75 µM (inactive)
same,GI50,COLO 205,20.9 µM (inactive)
same,GI50,DU-145,19 µM (inactive)
same,GI50,EKVX,16.2 µM (inactive)
same,GI50,HCC 2998,21.8 µM (inactive)
same,GI50,HCT-116,13.9 µM (inactive)
same,GI50,HCT-15,17.8 µM
same,GI50,HL-60,13.8 µM (inactive)
same,GI50,HOP-92,17.1 µM (inactive)
same,GI50,HT-29,16.4 µM (inactive)
same,GI50,Hs-578T,> 100 µM (inactive)
same,GI50,IGROV-1,16.6 µM (inactive)
same,GI50,K562,25.1 µM (inactive)
same,GI50,KM12,> 100 µM (inactive)
same,GI50,LOX IMVI,17.3 µM (inactive)
same,GI50,M14,21.5 µM (inactive)
same,GI50,MCF7,26.2 µM (inactive)
same,GI50,MDA-MB-231,21.3 µM (inactive)
same,GI50,MDA-MB-435,20.2 µM (inactive)
same,GI50,MDA-N,18.4 µM (inactive)
same,GI50,MOLT-4,8.81 µM (inactive)
same,GI50,Malme-3M,17.7 µM (inactive)
same,GI50,NCI-H226,14 µM (inactive)
same,GI50,NCI-H23,19.5 µM (inactive)
same,GI50,NCI-H460,23.7 µM (inactive)
same,GI50,NCI-H522,16.3 µM (inactive)
same,GI50,NCI/ADR-RES,17.9 µM (inactive)
same,GI50,OVCAR-3,18.8 µM (inactive)
same,GI50,OVCAR-4,20 µM (inactive)
same,GI50,OVCAR-5,21.1 µM (inactive)
same,GI50,OVCAR-8,19.2 µM (inactive)
same,GI50,PC-3,21.9 µM (inactive)
same,GI50,SF-268,> 100 µM (inactive)
same,GI50,SF-295,17.9 µM (inactive)
same,GI50,SF-539,19.1 µM (inactive)
same,GI50,SK-MEL-28,23.5 µM (inactive)
same,GI50,SK-MEL-2,16.5 µM (inactive)
same,GI50,SK-MEL-5,18.7 µM (inactive)
same,GI50,SK-OV-3,22.6 µM (inactive)
same,GI50,SN12C,19.9 µM (inactive)
same,GI50,SNB-19,16.6 µM (inactive)
same,GI50,SW-620,14.4 µM (inactive)
same,GI50,T47D,19.2 µM (inactive)
same,GI50,TK-10,23.1 µM (inactive)
same,GI50,U-251,14.3 µM (inactive)
same,GI50,UACC-257,29.2 µM (inactive)
same,GI50,UACC-62,22.3 µM (inactive)
same,GI50,UO-31,18.4 µM (inactive)
C=CCN(c1cc(OCc2ccccc2)c(NC(C)=O)cc1[N+](=O)[O-])S(C)(=O)=O,GI50,786-0,20.6 µM (inactive)
same,GI50,A498,19.3 µM (inactive)
same,GI50,A549,33.2 µM (inactive)
same,GI50,ACHN,52.7 µM (inactive)
same,GI50,BT-549,28.8 µM (inactive)
same,GI50,CAKI-1,42 µM (inactive)
same,GI50,CCRF-CEM,> 100 µM (inactive)
same,GI50,COLO 205,> 100 µM (inactive)
same,GI50,DU-145,> 100 µM (inactive)
same,GI50,EKVX,7.05 µM (inactive)
same,GI50,HCC 2998,> 100 µM (inactive)
same,GI50,HCT-116,28.5 µM (inactive)
same,GI50,HCT-15,> 100 µM
same,GI50,HL-60,> 100 µM (inactive)
same,GI50,HOP-62,22 µM (inactive)
same,GI50,HOP-92,19.2 µM (inactive)
same,GI50,HT-29,> 100 µM (inactive)
same,GI50,Hs-578T,24.2 µM (inactive)
same,GI50,IGROV-1,21.1 µM (inactive)
same,GI50,K562,> 100 µM (inactive)
same,GI50,KM12,> 100 µM (inactive)
same,GI50,LOX IMVI,50.6 µM (inactive)
same,GI50,M14,38.3 µM (inactive)
same,GI50,MCF7,52.2 µM (inactive)
same,GI50,MDA-MB-231,15.7 µM (inactive)
same,GI50,MDA-MB-435,> 100 µM (inactive)
same,GI50,MDA-N,> 100 µM (inactive)
same,GI50,MOLT-4,> 100 µM (inactive)
same,GI50,Malme-3M,26.7 µM (inactive)
same,GI50,NCI-H226,12.7 µM (inactive)
same,GI50,NCI-H23,18.4 µM (inactive)
same,GI50,NCI-H460,> 100 µM (inactive)
same,GI50,NCI-H522,35.5 µM (inactive)
same,GI50,NCI/ADR-RES,29.6 µM (inactive)
same,GI50,OVCAR-3,34.9 µM (inactive)
same,GI50,OVCAR-4,> 100 µM (inactive)
same,GI50,OVCAR-5,> 100 µM (inactive)
same,GI50,OVCAR-8,23.1 µM (inactive)
same,GI50,PC-3,> 100 µM (inactive)
same,GI50,RPMI-8226,46.7 µM (inactive)
same,GI50,RXF 393,18.7 µM (inactive)
same,GI50,SF-268,21.3 µM (inactive)
same,GI50,SF-295,23.5 µM (inactive)
same,GI50,SF-539,17.2 µM (inactive)
same,GI50,SK-MEL-28,> 100 µM (inactive)
same,GI50,SK-MEL-2,26.9 µM (inactive)
same,GI50,SK-MEL-5,> 100 µM (inactive)
same,GI50,SK-OV-3,17.9 µM (inactive)
same,GI50,SN12C,29 µM (inactive)
same,GI50,SNB-19,17.9 µM (inactive)
same,GI50,SNB-75,20 µM (inactive)
same,GI50,SW-620,> 100 µM (inactive)
same,GI50,T47D,29.3 µM (inactive)
same,GI50,TK-10,36.5 µM (inactive)
same,GI50,UACC-257,> 100 µM (inactive)
same,GI50,UACC-62,58.9 µM (inactive)
same,GI50,UO-31,33.1 µM (inactive)
COc1ccc2c(c1)O[C@@H]1C(O)Oc3cc(OC)c(OC)cc3[C@]1(O)C2=O (stereo not given in full),GI50,786-0,> 100 µM (inactive)
same,GI50,A498,82.6 µM (inactive)
same,GI50,A549,9.1 µM (inactive)
same,GI50,ACHN,> 100 µM (inactive)
same,GI50,BT-549,12.6 µM (inactive)
same,GI50,CAKI-1,> 100 µM (inactive)
same,GI50,CCRF-CEM,38.9 µM (inactive)
same,GI50,COLO 205,95.1 µM (inactive)
same,GI50,DU-145,> 100 µM (inactive)
same,GI50,EKVX,45.9 µM (inactive)
same,GI50,HCT-116,86.3 µM (inactive)
same,GI50,HCT-15,> 100 µM
same,GI50,HL-60,32.1 µM (inactive)
same,GI50,HOP-62,> 100 µM (inactive)
same,GI50,HT-29,89.9 µM (inactive)
same,GI50,Hs-578T,20.2 µM (inactive)
same,GI50,IGROV-1,> 100 µM (inactive)
same,GI50,K562,42.9 µM (inactive)
same,GI50,KM12,79.3 µM (inactive)
same,GI50,LOX IMVI,29.9 µM (inactive)
same,GI50,M14,> 100 µM (inactive)
same,GI50,MCF7,55.1 µM (inactive)
same,GI50,MDA-MB-231,72.3 µM (inactive)
same,GI50,MDA-MB-435,50.8 µM (inactive)
same,GI50,MDA-N,50.1 µM (inactive)
same,GI50,MOLT-4,36.6 µM (inactive)
same,GI50,NCI-H226,10.4 µM (inactive)
same,GI50,NCI-H23,3.44 µM (inactive)
same,GI50,NCI-H460,69 µM (inactive)
same,GI50,NCI-H522,5.33 µM (inactive)
same,GI50,NCI/ADR-RES,30.4 µM (inactive)
same,GI50,OVCAR-3,> 100 µM (inactive)
same,GI50,OVCAR-4,35.1 µM (inactive)
same,GI50,OVCAR-5,> 100 µM (inactive)
same,GI50,OVCAR-8,94.6 µM (inactive)
same,GI50,PC-3,59.6 µM (inactive)
same,GI50,RPMI-8226,44.8 µM (inactive)
same,GI50,RXF 393,> 100 µM (inactive)
same,GI50,SF-268,34.3 µM (inactive)
same,GI50,SF-295,24 µM (inactive)
same,GI50,SF-539,> 100 µM (inactive)
same,GI50,SK-MEL-28,> 100 µM (inactive)
same,GI50,SK-MEL-2,> 100 µM (inactive)
same,GI50,SK-MEL-5,10.5 µM (inactive)
same,GI50,SK-OV-3,> 100 µM (inactive)
same,GI50,SN12C,> 100 µM (inactive)
same,GI50,SNB-19,> 100 µM (inactive)
same,GI50,SNB-75,> 100 µM (inactive)
same,GI50,SW-620,88.7 µM (inactive)
same,GI50,T47D,31.2 µM (inactive)
same,GI50,TK-10,> 100 µM (inactive)
same,GI50,U-251,59 µM (inactive)
same,GI50,UACC-257,29 µM (inactive)
same,GI50,UACC-62,78 µM (inactive)
